Source: PubChem BioAssay (NCI)
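Following 48 hours of exposure in 96-well plates, responses at five concentrations were used to interpolate endpoints linearly. Abbreviation: GI50, concentration required for 50% inhibition of growth. TGI denotes the concentration required for complete inhibition of growth.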

Assays:
Assay in all cases: NCI-60 cell line screen, 48 h; in the data active = GI50 below about 0.43 µM; inactive = the rest
M14 melanoma = tested on: M14 melanoma
OVCAR-5 ovarian = tested on: OVCAR-5 ovarian
UACC-257 melanoma = tested on: UACC-257 melanoma
NCI-H23 lung = tested on: NCI-H23 lung
EKVX NSCLC = tested on: EKVX NSCLC
HCT-116 colon = tested on: HCT-116 colon
SF-268 CNS = tested on: SF-268 CNS
SK-OV-3 ovarian = tested on: SK-OV-3 ovarian
OVCAR-3 ovarian = tested on: OVCAR-3 ovarian
MOLT-4 leukemia = tested on: MOLT-4 leukemia
RPMI-8226 leukemia = tested on: RPMI-8226 leukemia
HL-60(TB) leukemia = tested on: HL-60(TB) leukemia
NCI-H522 lung = tested on: NCI-H522 lung
SF-295 CNS = tested on: SF-295 CNS
MDA-MB-231 breast = tested on: MDA-MB-231 breast
SNB-75 CNS = tested on: SNB-75 CNS
SW-620 colon = tested on: SW-620 colon
UACC-62 melanoma = tested on: UACC-62 melanoma
TK-10 renal = tested on: TK-10 renal
T-47D breast = tested on: T-47D breast
MDA-MB-435 = tested on: MDA-MB-435
HOP-92 NSCLC = tested on: HOP-92 NSCLC
OVCAR-4 ovarian = tested on: OVCAR-4 ovarian
LOX IMVI melanoma = tested on: LOX IMVI melanoma
HT29 colon = tested on: HT29 colon
MALME-3M melanoma = tested on: MALME-3M melanoma
CAKI-1 renal = tested on: CAKI-1 renal
HCT-15 colon = tested on: HCT-15 colon
DU-145 prostate = tested on: DU-145 prostate
IGROV1 ovarian = tested on: IGROV1 ovarian
SK-MEL-2 melanoma = tested on: SK-MEL-2 melanoma
NCI-H460 lung = tested on: NCI-H460 lung
U251 CNS = tested on: U251 CNS
ACHN renal = tested on: ACHN renal
MCF7 breast = tested on: MCF7 breast
KM12 colon = tested on: KM12 colon
PC-3 prostate = tested on: PC-3 prostate
SK-MEL-5 melanoma = tested on: SK-MEL-5 melanoma
RXF 393 renal = tested on: RXF 393 renal
HS 578T breast = tested on: HS 578T breast
A549 NSCLC = tested on: A549 NSCLC
HCC-2998 colon = tested on: HCC-2998 colon
K-562 leukemia = tested on: K-562 leukemia
SK-MEL-28 melanoma = tested on: SK-MEL-28 melanoma
COLO 205 colon = tested on: COLO 205 colon
A498 renal = tested on: A498 renal
BT-549 breast = tested on: BT-549 breast
SN12C renal = tested on: SN12C renal
SNB-19 CNS = tested on: SNB-19 CNS
NCI-H226 lung = tested on: NCI-H226 lung
786-0 renal = tested on: 786-0 renal
NCI/ADR-RES ovarian = tested on: NCI/ADR-RES ovarian
UO-31 renal = tested on: UO-31 renal
HOP-62 NSCLC = tested on: HOP-62 NSCLC
OVCAR-8 ovarian = tested on: OVCAR-8 ovarian
SF-539 CNS = tested on: SF-539 CNS
CCRF-CEM leukemia = tested on: CCRF-CEM leukemia

O=C(O)C(F)(OC(F)(F)C(F)(F)C(F)(F)F)C(F)(F)F (stereo not given)
> 100 µM: TGI (M14 melanoma) | TGI (OVCAR-5 ovarian) | TGI (UACC-257 melanoma) | TGI (NCI-H23 lung) | TGI (EKVX NSCLC) | TGI (HCT-116 colon) | TGI (SF-268 CNS) | TGI (SK-OV-3 ovarian) | TGI (OVCAR-3 ovarian) | TGI (MOLT-4 leukemia) | TGI (RPMI-8226 leukemia) | TGI (HL-60(TB) leukemia) | TGI (NCI-H522 lung) | TGI (SF-295 CNS) | TGI (MDA-MB-231 breast) | TGI (SNB-75 CNS) | TGI (SW-620 colon) | TGI (UACC-62 melanoma) | TGI (TK-10 renal) | TGI (T-47D breast) | TGI (MDA-MB-435) | TGI (HOP-92 NSCLC) | TGI (OVCAR-4 ovarian) | TGI (LOX IMVI melanoma) | TGI (HT29 colon) | TGI (MALME-3M melanoma) | TGI (CAKI-1 renal) | TGI (HCT-15 colon) | TGI (DU-145 prostate) | TGI (IGROV1 ovarian) | TGI (SK-MEL-2 melanoma) | TGI (NCI-H460 lung) | TGI (U251 CNS) | TGI (ACHN renal) | TGI (MCF7 breast) | TGI (KM12 colon) | TGI (PC-3 prostate) | TGI (SK-MEL-5 melanoma) | TGI (RXF 393 renal) | TGI (HS 578T breast) | TGI (A549 NSCLC) | TGI (HCC-2998 colon) | TGI (K-562 leukemia) | TGI (SK-MEL-28 melanoma) | TGI (COLO 205 colon) | TGI (A498 renal) | TGI (BT-549 breast) | TGI (SN12C renal) | TGI (SNB-19 CNS) | TGI (NCI-H226 lung) | TGI (786-0 renal) | TGI (NCI/ADR-RES ovarian) | TGI (UO-31 renal) | TGI (HOP-62 NSCLC) | TGI (OVCAR-8 ovarian) | TGI (SF-539 CNS)

Cc1oncc1C(=O)Nc1ccc(C(F)(F)F)cc1
> 100 µM: TGI (M14 melanoma) | TGI (OVCAR-5 ovarian) | TGI (UACC-257 melanoma) | TGI (NCI-H23 lung) | TGI (EKVX NSCLC) | TGI (HCT-116 colon) | TGI (SF-268 CNS) | TGI (SK-OV-3 ovarian) | TGI (MOLT-4 leukemia) | TGI (RPMI-8226 leukemia) | TGI (HL-60(TB) leukemia) | TGI (NCI-H522 lung) | TGI (SF-295 CNS) | TGI (MDA-MB-231 breast) | TGI (SNB-75 CNS) | TGI (SW-620 colon) | TGI (UACC-62 melanoma) | TGI (TK-10 renal) | TGI (CCRF-CEM leukemia) | TGI (T-47D breast) | TGI (MDA-MB-435) | TGI (OVCAR-4 ovarian) | TGI (LOX IMVI melanoma) | TGI (HT29 colon) | TGI (MALME-3M melanoma) | TGI (CAKI-1 renal) | TGI (HCT-15 colon) | TGI (DU-145 prostate) | TGI (IGROV1 ovarian) | TGI (SK-MEL-2 melanoma) | TGI (NCI-H460 lung) | TGI (U251 CNS) | TGI (ACHN renal) | TGI (MCF7 breast) | TGI (KM12 colon) | TGI (PC-3 prostate) | TGI (SK-MEL-5 melanoma) | TGI (RXF 393 renal) | TGI (HS 578T breast) | TGI (A549 NSCLC) | TGI (HCC-2998 colon) | TGI (K-562 leukemia) | TGI (SK-MEL-28 melanoma) | TGI (COLO 205 colon) | TGI (BT-549 breast) | TGI (SN12C renal) | TGI (SNB-19 CNS) | TGI (NCI-H226 lung) | TGI (786-0 renal) | TGI (NCI/ADR-RES ovarian) | TGI (UO-31 renal) | TGI (HOP-62 NSCLC) | TGI (OVCAR-8 ovarian) | TGI (SF-539 CNS)
inactive: GI50 (M14 melanoma) 68.2 µM | GI50 (OVCAR-5 ovarian) > 100 µM | GI50 (UACC-257 melanoma) 26.9 µM | GI50 (NCI-H23 lung) 42.4 µM | GI50 (EKVX NSCLC) 18.7 µM | GI50 (HCT-116 colon) 15.6 µM | GI50 (SF-268 CNS) 23 µM | GI50 (SK-OV-3 ovarian) > 100 µM | GI50 (OVCAR-3 ovarian) 20.8 µM | GI50 (MOLT-4 leukemia) 36.4 µM | GI50 (RPMI-8226 leukemia) 17.5 µM | GI50 (HL-60(TB) leukemia) 24.5 µM | GI50 (NCI-H522 lung) 33.6 µM | GI50 (SF-295 CNS) 19.5 µM | GI50 (MDA-MB-231 breast) 25.9 µM | GI50 (SNB-75 CNS) 23.5 µM | GI50 (SW-620 colon) 92.5 µM | GI50 (UACC-62 melanoma) 36 µM | GI50 (TK-10 renal) > 100 µM | GI50 (CCRF-CEM leukemia) 17.8 µM | GI50 (T-47D breast) 94 µM | GI50 (MDA-MB-435) 46.9 µM | GI50 (HOP-92 NSCLC) 6.17 µM | GI50 (OVCAR-4 ovarian) 25 µM | GI50 (LOX IMVI melanoma) 19.1 µM | GI50 (HT29 colon) 66.3 µM | GI50 (MALME-3M melanoma) 20.5 µM | GI50 (CAKI-1 renal) 33.3 µM | GI50 (HCT-15 colon) 14.1 µM | GI50 (DU-145 prostate) 56.1 µM | GI50 (IGROV1 ovarian) 26.7 µM | GI50 (SK-MEL-2 melanoma) > 100 µM | GI50 (NCI-H460 lung) 24.8 µM | GI50 (U251 CNS) 14.7 µM | GI50 (ACHN renal) 41.7 µM | GI50 (MCF7 breast) > 100 µM | GI50 (KM12 colon) 35.8 µM | GI50 (PC-3 prostate) 13.9 µM | GI50 (SK-MEL-5 melanoma) 29.3 µM | GI50 (RXF 393 renal) 23.9 µM | GI50 (HS 578T breast) 54.5 µM | GI50 (A549 NSCLC) 39.8 µM | GI50 (HCC-2998 colon) 64.5 µM | GI50 (K-562 leukemia) 12.1 µM | GI50 (SK-MEL-28 melanoma) 56.7 µM | GI50 (COLO 205 colon) > 100 µM | GI50 (A498 renal) 9.97 µM | GI50 (BT-549 breast) 22.1 µM | GI50 (SN12C renal) > 100 µM | GI50 (SNB-19 CNS) > 100 µM | GI50 (NCI-H226 lung) 35.1 µM | GI50 (786-0 renal) 54.5 µM | GI50 (NCI/ADR-RES ovarian) 45.1 µM | GI50 (UO-31 renal) 12.6 µM | GI50 (HOP-62 NSCLC) > 100 µM | GI50 (OVCAR-8 ovarian) 17.6 µM | GI50 (SF-539 CNS) 60.3 µM
58.7 µM: TGI (A498 renal)
46 µM: TGI (HOP-92 NSCLC)
78.7 µM: TGI (OVCAR-3 ovarian)
